Laboratory results: PubChem BioAssay AID248 (DTP/NCI, 2004)
Several values for one entry are separate records, joined by “and”; a condition that tells them apart may be missing. Equal values may be shown once. Toxic doses and inconclusive results are not listed. Rule as the data show it: active = T/C of 150% or more; inactive = T/C below 125%.

Tested on: L1210 leukemia ip in BDF1 mice, survival T/C
Test: NCI In Vivo Anticancer Drug Screen. Data for tumor model L1210 Leukemia (intraperitoneal) in B6D2F1 (BDF1) mice
Settings: endpoint: mean survival time, higher = longer survival
Method in brief: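 Value reflects the ratio of survival in compound-treated mice to survival in vehicle-treated controls, with both groups carrying the same transplanted tumor.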

[1] = dose: 100.0 mg/kg/injection, schedule: Q01DX001 (ip), vehicle: carboxymethylcellulose (CMC)
[2] = dose: 200.0 mg/kg/injection, schedule: Q01DX001 (ip), vehicle: carboxymethylcellulose (CMC)
[3] = dose: 400.0 mg/kg/injection, schedule: Q01DX001 (ip), vehicle: carboxymethylcellulose (CMC)
[4] = dose: 100.0 mg/kg/injection, schedule: Q01DX009 (ip), vehicle: saline with Tween-80
[5] = dose: 200.0 mg/kg/injection, schedule: Q01DX009 (ip), vehicle: saline with Tween-80
[6] = dose: 50.0 mg/kg/injection, schedule: Q04DX003 (ip), vehicle: saline
[7] = dose: 100.0 mg/kg/injection, schedule: Q01DX001 (ip), vehicle: saline
[8] = dose: 100.0 mg/kg/injection, schedule: Q04DX003 (ip), vehicle: saline
[9] = dose: 200.0 mg/kg/injection, schedule: Q01DX001 (ip), vehicle: saline
[10] = dose: 100.0 mg/kg/injection, schedule: Q01DX001 (ip), vehicle: other
[11] = dose: 200.0 mg/kg/injection, schedule: Q01DX001 (ip), vehicle: other
[12] = dose: 400.0 mg/kg/injection, schedule: Q01DX001 (ip), vehicle: other
[13] = dose: 25.0 mg/kg/injection, schedule: Q04DX003 (ip), vehicle: saline
[14] = dose: 25.0 mg/kg/injection, schedule: Q04DX003 (ip), vehicle: Klucel (hydroxypropylcellulose) (HPC)
[15] = dose: 100.0 mg/kg/injection, schedule: Q04DX003 (ip), vehicle: Klucel (hydroxypropylcellulose) (HPC)
[16] = dose: 50.0 mg/kg/injection, schedule: Q01DX001 (ip), vehicle: carboxymethylcellulose (CMC)
[17] = dose: 50.0 mg/kg/injection, schedule: Q01DX009 (ip), vehicle: Klucel (hydroxypropylcellulose) (HPC)

Measured: T/C

CN1CCC2CCC(C1)N2C (configuration not stated)
inactive: dose: 75.0 mg/kg/injection, schedule: Q01DX001 (ip), vehicle: saline 93 % of control | dose: 150.0 mg/kg/injection, schedule: Q01DX001 (ip), vehicle: saline 100 % of control

CCSC(SCC)C(SCC)C(O)C(O)C(O)CO (configuration not stated)
inactive: [1] 106 % of control | [2] 112 % of control | [3] 114 % of control

O=C(O)c1ccc(S(=O)(=O)F)c(Cl)c1
inactive: [4] 100 % of control | [5] 102 % of control | dose: 400.0 mg/kg/injection, schedule: Q01DX009 (ip), vehicle: saline with Tween-80 89 % of control

CC(C)(C#N)C(C)(C)C#N
inactive: dose: 1.56 mg/kg/injection, schedule: Q04DX003 (ip), vehicle: saline with Tween-80 103 % of control | dose: 3.13 mg/kg/injection, schedule: Q04DX003 (ip), vehicle: saline with Tween-80 92 % of control | dose: 6.25 mg/kg/injection, schedule: Q04DX003 (ip), vehicle: saline with Tween-80 93 % of control and 92 % of control

CC(=O)NC1CCCC(C)N1 (configuration not stated)
inactive: [6] 98 % of control | [7] 110 % of control | [8] 104 % of control | [9] 100 % of control | dose: 200.0 mg/kg/injection, schedule: Q04DX003 (ip), vehicle: saline 96 % of control

CCCCCCCCCCCCCCC(F)C(=O)OC (configuration not stated)
inactive: dose: 100.0 mg/kg/injection, schedule: Q01DX009 (sc), vehicle: olive oil, sesame oil, peanut oil 94 % of control | dose: 100.0 mg/kg/injection, schedule: Q04DX003 (sc), vehicle: olive oil, sesame oil, peanut oil 102 % of control | dose: 200.0 mg/kg/injection, schedule: Q04DX003 (sc), vehicle: olive oil, sesame oil, peanut oil 113 % of control | dose: 400.0 mg/kg/injection, schedule: Q04DX003 (sc), vehicle: olive oil, sesame oil, peanut oil 109 % of control

CC1(C)CC(=O)C2=C(C1)Nc1ccccc1CC2c1c[nH]c2ccccc12 (configuration not stated)
inactive: [10] 94 % of control | [11] 103 % of control | [12] 103 % of control

N#CC(C#N)=C1CCCc2sccc21
inactive: [7] 90 % of control | [9] 95 % of control | dose: 400.0 mg/kg/injection, schedule: Q01DX001 (ip), vehicle: saline 92 % of control

C[S+]1CCSCC1
inactive: [13] 90 % of control | [6] 87 % of control | [8] 117 % of control

O=[N+]([O-])c1ccc([N+](=O)[O-])c2nsnc12
inactive: dose: 12.5 mg/kg/injection, schedule: Q04DX003 (ip), vehicle: Klucel (hydroxypropylcellulose) (HPC) 98 % of control | [14] 102 % of control

O=C1C=CC(=O)N1CCCCCCCCCCN1C(=O)C=CC1=O
inactive: dose: 1.0 mg/kg/injection, schedule: Q01DX Z (ip), vehicle: methylcellulose (MC) 94 % of control | dose: 1.4 mg/kg/injection, schedule: Q01DX Z (ip), vehicle: methylcellulose (MC) 96 % of control | dose: 2.2 mg/kg/injection, schedule: Q01DX Z (ip), vehicle: methylcellulose (MC) 90 % of control

O=c1oc2ccccc2c(O)c1C(c1ccc(C(c2c(O)c3ccccc3oc2=O)c2c(O)c3ccccc3oc2=O)cc1)c1c(O)c2ccccc2oc1=O
inactive: [15] 105 % of control | dose: 200.0 mg/kg/injection, schedule: Q04DX003 (ip), vehicle: Klucel (hydroxypropylcellulose) (HPC) 99 % of control | dose: 400.0 mg/kg/injection, schedule: Q04DX003 (ip), vehicle: Klucel (hydroxypropylcellulose) (HPC) 93 % of control

O=C1C(n2ccc(=O)[nH]c2=O)CCN1CCO (configuration not stated)
inactive: dose: 100.0 mg/kg/injection, schedule: Q01DX009 (ip), vehicle: saline 105 % of control | dose: 200.0 mg/kg/injection, schedule: Q01DX009 (ip), vehicle: saline 100 % of control | dose: 400.0 mg/kg/injection, schedule: Q01DX009 (ip), vehicle: saline 97 % of control

CCN(CC)CCNC(=O)c1cc(N2CCOCC2)ccn1
inactive: [7] 108 % of control | [9] 102 % of control

O=C(Nc1ccccc1C(F)(F)F)OCC1CCCO1 (configuration not stated)
inactive: dose: 100.0 mg/kg/injection, schedule: Q01DX009 (ip), vehicle: gum acacia 109 % of control | dose: 200.0 mg/kg/injection, schedule: Q01DX009 (ip), vehicle: gum acacia 95 % of control | dose: 400.0 mg/kg/injection, schedule: Q01DX009 (ip), vehicle: gum acacia 100 % of control

CC1=CC(=O)C2CCC=C(C(=O)O)C2(C)C1=O (configuration not stated)
inactive: dose: 100.0 mg/kg/injection, schedule: Q04DX003 (ip), vehicle: alcohol 97 % of control | dose: 200.0 mg/kg/injection, schedule: Q04DX003 (ip), vehicle: alcohol 102 % of control | dose: 400.0 mg/kg/injection, schedule: Q04DX003 (ip), vehicle: alcohol 97 % of control

O=C(Nc1ccccc1Cl)Oc1ccc(Cl)cc1Cc1ccccc1
inactive: [4] 91 % of control | dose: 100.0 mg/kg/injection, schedule: Q04DX002 (ip), vehicle: saline with Tween-80 100 % of control | [5] 90 % of control | dose: 200.0 mg/kg/injection, schedule: Q04DX002 (ip), vehicle: saline with Tween-80 91 % of control | dose: 400.0 mg/kg/injection, schedule: Q04DX002 (ip), vehicle: saline with Tween-80 91 % of control

CCOC(=O)C(C#N)S(C)(=O)=O (configuration not stated)
inactive: [7] 89 % of control | [9] 95 % of control

CCCCCn1c(Cl)c(C(=O)O)c2ccccc21
inactive: [14] 109 % of control | dose: 50.0 mg/kg/injection, schedule: Q04DX003 (ip), vehicle: Klucel (hydroxypropylcellulose) (HPC) 97 % of control | [15] 102 % of control

O=[As](O)(CC(O)COc1ccc(Cl)cc1Cl)c1ccc(Cl)cc1 (configuration not stated)
inactive: dose: 6.25 mg/kg/injection, schedule: Q01DX001 (ip), vehicle: saline with Tween-80 105 % of control | dose: 12.5 mg/kg/injection, schedule: Q01DX001 (ip), vehicle: saline with Tween-80 98 % of control | dose: 25.0 mg/kg/injection, schedule: Q01DX001 (ip), vehicle: saline with Tween-80 98 % of control | dose: 100.0 mg/kg/injection, schedule: Q01DX001 (ip), vehicle: saline with Tween-80 91 % of control

CC(N)C(=O)NC(CC(N)=O)C(=O)O (configuration not stated)
inactive: dose: 25.0 mg/kg/injection, schedule: Q04DX002 (ip), vehicle: saline 95 % of control | [16] 97 % of control | dose: 50.0 mg/kg/injection, schedule: Q04DX002 (ip), vehicle: saline 100 % of control | [1] 97 % of control | dose: 100.0 mg/kg/injection, schedule: Q04DX002 (ip), vehicle: saline 106 % of control | [2] 97 % of control | [3] 95 % of control

CCOC(=O)c1ccc(N=Cc2cnc(N)nc2N)cc1
inactive: [10] 93 % of control | [11] 87 % of control | [12] 93 % of control

COc1nc(N)c(C#N)cc1C#N
inactive: dose: 12.5 mg/kg/injection, schedule: Q01DX009 (ip), vehicle: Klucel (hydroxypropylcellulose) (HPC) 96 % of control | dose: 25.0 mg/kg/injection, schedule: Q01DX009 (ip), vehicle: Klucel (hydroxypropylcellulose) (HPC) 102 % of control | [17] 93 % of control | [15] 92 % of control

O=C1C[N+]2(CCCCC2)c2ccc(Cl)cc2N1
inactive: dose: 6.25 mg/kg/injection, schedule: Q01DX009 (ip), vehicle: saline 87 % of control | dose: 6.25 mg/kg/injection, schedule: Q04DX003 (ip), vehicle: saline 91 % of control | dose: 12.5 mg/kg/injection, schedule: Q01DX009 (ip), vehicle: saline 92 % of control | dose: 12.5 mg/kg/injection, schedule: Q04DX003 (ip), vehicle: saline 91 % of control | dose: 25.0 mg/kg/injection, schedule: Q01DX009 (ip), vehicle: saline 95 % of control | [13] 93 % of control

CC(=O)OC1CCC2(C)C3=C(CCC2C1(C)C)C1(C)CCC(C(C)CCC=C(C)C)C1(C)CC3 (configuration not stated)
inactive: [17] 102 % of control | dose: 100.0 mg/kg/injection, schedule: Q01DX009 (ip), vehicle: Klucel (hydroxypropylcellulose) (HPC) 94 % of control

C(/CCc1ccccc1)=N\Nc1nnc(N/N=C/CCc2ccccc2)c2ccccc12
inactive: [16] 102 % of control | [1] 105 % of control | [2] 102 % of control
